We go through 26 compounds from patent US10092537B2, “Use for PAI-1 inhibitor” (RENASCIENCE CO., LTD., priority 2013, dated 2018).

Counter-ions that a name gives are not always drawn.

In assay [1] the target is T1, human PAI-1 (Homo sapiens, UniProt P05121). Put plainly: Measurement of PAI-1 inhibitory activity of compound group 2 (t-PA, S-2288 chromogenic substrate). As to conditions: PAI-1 activity of the system without compound after 30 minutes taken as 100%.
Protocol: Subsequently, human-derived tissue plasminogen activator (t-PA) (manufactured by American Diagnostica, Inc. (USA); the same applies hereinafter) adjusted to 0.3 pmol/μL was added thereto, and the mixture was further incubated at 37° C. for 15 minutes.
The target of assay [2] is T1, human PAI-1. As to the kind of experiment: Measurement of PAI-1 inhibitory activity of compound group 3 (t-PA, S-2288 chromogenic substrate; Table 4).
Protocol: Subsequently, tissue plasminogen activator (t-PA) (manufactured by American Diagnostica, Inc. (USA); the same applies hereinafter) adjusted to 0.3 pmol/μL was added thereto, and further incubated at 37° C. for 15 minutes.
Assay [3] addresses T1, human PAI-1. Put plainly: Measurement of PAI-1 inhibitory activity of compound group 1 (t-PA, S-2288 chromogenic substrate). As to conditions: read-out: PAI-1 activity %.
Protocol: Subsequently, human-derived tissue plasminogen activator (t-PA) (manufactured by American Diagnostica, Inc. (USA); the same applies hereinafter) adjusted to 0.35 pmol/μL was added thereto, and the mixture was further incubated at 37° C. for 15 minutes.
Assay [4] has as its target T1, human PAI-1. Put plainly: Measurement of PAI-1 inhibitory activity of compound group 1 (t-PA, Spectrozyme t-PA chromogenic substrate). Particulars: for activity at 2.5 µM / activity at 10 µM: read-out: PAI-1 activity %; for PAI-1 activity %: PAI-1 activity of the system without compound after 120 minutes taken as 100%.

T1 sequence (P05121 24-402): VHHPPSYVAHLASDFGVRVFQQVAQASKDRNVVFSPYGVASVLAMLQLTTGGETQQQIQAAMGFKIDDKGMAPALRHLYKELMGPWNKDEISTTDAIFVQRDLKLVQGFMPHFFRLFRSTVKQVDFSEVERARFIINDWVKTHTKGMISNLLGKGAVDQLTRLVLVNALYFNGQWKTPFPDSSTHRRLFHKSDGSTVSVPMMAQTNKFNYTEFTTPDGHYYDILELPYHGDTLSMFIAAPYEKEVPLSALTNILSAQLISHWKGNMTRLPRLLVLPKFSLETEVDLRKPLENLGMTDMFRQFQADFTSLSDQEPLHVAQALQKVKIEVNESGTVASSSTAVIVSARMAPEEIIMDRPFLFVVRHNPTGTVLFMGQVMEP

Consider “5-chloro-2-({[4-(diphenylmethyl)piperazin-1-yl]carbonyl}amino)benzoic acid hydrochloride [Example 75]”, for which the PAI-1 activity % on human PAI-1 [1] (compound 20 μM) is 91.3%; on human PAI-1 [1] (compound 50 μM) it was 13.3%; at human PAI-1 [2] (compound concentration 20 μM), 46.1%.
Turning to “5-chloro-2-({[4-(pyrrolidin-1-yl)phenyl]carbonyl}amino)benzoic acid hydrochloride [Example 83]”, the PAI-1 activity % is given as 99.8% at human PAI-1 [1] (compound 20 μM) and 77.8% at human PAI-1 [1] (compound 50 μM).
Take `O=C(CCCNC(=O)c1cccc(-c2ccoc2)c1)Nc1ccc(Cl)cc1C(=O)O` [Example 1, 5-chloro-2-{[4-({[3-(furan-3-yl)phenyl]carbonyl}amino)butanoyl]amino}benzoic acid]: at human PAI-1 [3], the activity at 20 µM stood at 95.5% and the activity at 50 µM was 48.9%.
Turning to `O=C(Cc1cccc(-c2ccoc2)c1)Nc1ccc(Cl)cc1C(=O)O` [Example 3, 5-chloro-2-({[3-(furan-3-yl)phenyl]acetyl}amino)benzoic acid], at human PAI-1 [3], the activity at 20 µM is 63.7% and the activity at 50 µM is 19.6%.
`Cc1sc(NC(=O)c2cccc(-c3ccoc3)c2)c(C(=O)O)c1-c1ccccc1` [Example 5, 2-({[3-(furan-3-yl)phenyl]carbonyl}amino)-5-methyl-4-phenylthiophene-3-carboxylic acid]: at human PAI-1 [4], the activity at 2.5 µM stood at 46.4% and the activity at 10 µM stood at 0.3%. Besides, on human PAI-1 [3], the activity at 20 µM turned out to be 14.7% and the activity at 50 µM worked out at 6.1%.
Turning to `O=C(O)c1cc(Cl)ccc1NC(=O)c1ccccc1-c1ccccc1` [Example 6, 2-[(biphenyl-2-ylcarbonyl)amino]-5-chlorobenzoic acid], at human PAI-1 [3], the activity at 20 µM is 51.4% and the activity at 50 µM came to 22.2%.
In the case of `O=C(Nc1ccc(Cl)cc1C(=O)O)c1ccc(-c2cccs2)cc1` [Example 7, 5-chloro-2-({[4-(thiophen-2-yl)phenyl]carbonyl}amino)benzoic acid], at human PAI-1 [4], the activity at 2.5 µM stood at 99.8% and the activity at 10 µM is 0.4%. Besides, at human PAI-1 [3], the activity at 20 µM stood at 54.2% and the activity at 50 µM came to 7.4%.
With `O=C(Nc1ccc(Cl)cc1C(=O)[O-])c1cccc(-c2ccncc2)c1.[Na+]` [Example 8, sodium 5-chloro-2-({[3-(pyridin-4-yl)phenyl]carbonyl}amino)benzoate], the PAI-1 activity % on human PAI-1 [1] (compound 50 μM) turned out to be 12.9%; at human PAI-1 [1] (compound 100 μM), 9.3%; on human PAI-1 [2] (compound concentration 20 μM), 95.6%; on human PAI-1 [2] (compound concentration 50 μM), 12.4%. For the same compound, the activity at 2.5 µM at human PAI-1 [4] was 100%. In addition, the activity at 10 µM at human PAI-1 [4] came out at 28.5%.
`O=C(O)c1cc(Cl)ccc1NC(=O)[C@@H]1CCCN1C(=O)Cc1cccc(-c2ccoc2)c1` [Example 9, 5-chloro-2-[(1-{[3-(furan-3-yl)phenyl]acetyl}-L-prolyl)amino]benzoic acid]: at human PAI-1 [3], the activity at 20 µM was determined as 98.1% and the activity at 50 µM came to 53.2%.
Consider `O=C(O)c1cc(Cl)ccc1NC(=O)[C@@H]1CCCN1C(=O)c1cccc(-c2ccoc2)c1` [Example 10, 5-chloro-2-[(-{[3-(furan-3-yl)phenyl]carbonyl}-L-prolyl)amino]benzoic acid], for which, at human PAI-1 [3], the activity at 20 µM stood at 73% and the activity at 50 µM is 38.3%.
For the compound `O=C(O)c1cc(Cl)ccc1NC(=O)C1CCCN(C(=O)Cc2cccc(-c3ccoc3)c2)C1` (stereo not shown) [Example 12, 5-chloro-2-{[(1-{[3-(furan-3-yl)phenyl]acetyl}piperidin-3-yl)carbonyl]amino}benzoic acid], at human PAI-1 [3], the activity at 20 µM is 57.7% and the activity at 50 µM is 15.7%.
`Cn1cc(C(=O)C(=O)Nc2ccc(Cl)cc2C(=O)O)c2cc(-c3ccoc3)ccc21` [Example 14, 5-chloro-2-({[5-(furan-3-yl)-1-methyl-1H-indol-3-yl](oxo)acetyl}amino)benzoic acid]: on human PAI-1 [4], the activity at 2.5 µM was 87.4% and the activity at 10 µM worked out at 4.3%. Besides, on human PAI-1 [3], the activity at 20 µM was 22.1% and the activity at 50 µM amounted to 12.9%.
`CC(C(=O)Nc1ccc(Cl)cc1C(=O)O)(c1ccccc1)c1ccccc1` [Example 39]: the PAI-1 activity % at human PAI-1 [1] (compound 100 μM) is reported as 36.1%; at human PAI-1 [4] (compound 2.5 μM) it was 88.6%; on human PAI-1 [4] (compound 10 μM) it was 22.1%; on human PAI-1 [2] (compound concentration 20 μM) it was 64.3%; at human PAI-1 [2] (compound concentration 50 μM) it was 6.9%.
With `O=C(COc1cccc(-c2ccccc2)c1)Nc1ccc(-c2ccccc2)cc1C(=O)O` [Example 45], the PAI-1 activity % was 79.6% at human PAI-1 [1] (compound 20 μM); 7.7% at human PAI-1 [1] (compound 50 μM); 76.9% at human PAI-1 [4] (compound 2.5 μM); 0.9% at human PAI-1 [4] (compound 10 μM); 47.8% at human PAI-1 [2] (compound concentration 20 μM); 8.4% at human PAI-1 [2] (compound concentration 50 μM).
Turning to `O=C(COc1ccc(-c2ccccc2)cc1)Nc1ccc(-c2ccoc2)cc1C(=O)O` [Example 46], the PAI-1 activity % at human PAI-1 [1] (compound 20 μM) was found to be 85.4%; on human PAI-1 [1] (compound 50 μM) it was 8.4%; on human PAI-1 [4] (compound 2.5 μM) it was 69.9%; at human PAI-1 [4] (compound 10 μM), 0.4%; at human PAI-1 [2] (compound concentration 20 μM) it was 83.9%; at human PAI-1 [2] (compound concentration 50 μM), 47.3%.
As for `O=C(Nc1ccc(Cl)cc1C(=O)[O-])c1cccc(-c2cnc3ccccc3c2)c1.[Na+]` [Example 63, sodium 5-chloro-2-({[3-(quinolin-3-yl)phenyl]carbonyl}amino)benzoate], the PAI-1 activity % at human PAI-1 [1] (compound 20 μM) is recorded as 78.2%; on human PAI-1 [1] (compound 50 μM), 21.4%; on human PAI-1 [2] (compound concentration 20 μM), 64.3%; at human PAI-1 [2] (compound concentration 50 μM), 10.6%. At human PAI-1 [4], the activity at 2.5 µM was 21.3%. Further, the activity at 10 µM at human PAI-1 [4] came to 0.3%.
As for `O=C(Nc1ccc(Cl)cc1C(=O)[O-])c1cccc(-c2cncc3ccccc23)c1.[Na+]` [Example 64, sodium 5-chloro-2-({[3-(isoquinolin-4-yl)phenyl]carbonyl}amino)benzoate], the PAI-1 activity % turned out to be 62.7% at human PAI-1 [1] (compound 20 μM), 7.5% at human PAI-1 [1] (compound 50 μM), 71.6% on human PAI-1 [2] (compound concentration 20 μM) and 19.2% at human PAI-1 [2] (compound concentration 50 μM). Moreover, the activity at 2.5 µM at human PAI-1 [4] worked out at 74.3%. The activity at 10 µM at human PAI-1 [4] was 0.7%.
With `O=C(Nc1ccc(Cl)cc1C(=O)[O-])c1cccc(-c2ccc3ncccc3c2)c1.[Na+]` [Example 65, sodium 5-chloro-2-({[3-(quinolin-6-yl)phenyl]carbonyl}amino)benzoate], the PAI-1 activity % is given as 76.9% at human PAI-1 [1] (compound 20 μM), 10.8% at human PAI-1 [1] (compound 50 μM), 86.0% at human PAI-1 [2] (compound concentration 20 μM) and 25.4% on human PAI-1 [2] (compound concentration 50 μM). Also, the activity at 2.5 µM at human PAI-1 [4] came to 71.7%. In addition, the activity at 10 µM on human PAI-1 [4] is 0.4%.
Regarding `O=C(Nc1ccc(Cl)cc1C(=O)[O-])c1cccc(-c2cccc3cnccc23)c1.[Na+]` [Example 66, sodium 5-chloro-2-({[3-(isoquinolin-5-yl)phenyl]carbonyl}amino)benzoate], the PAI-1 activity % on human PAI-1 [1] (compound 20 μM) came to 97.7%; on human PAI-1 [1] (compound 50 μM), 13.1%; at human PAI-1 [2] (compound concentration 20 μM), 59.2%; at human PAI-1 [2] (compound concentration 50 μM), 17.7%. Besides, the activity at 2.5 µM at human PAI-1 [4] turned out to be 22.6%. The activity at 10 µM at human PAI-1 [4] is 0.1%.
Take `CC(C)(C)c1ccc(C(=O)Nc2ccc(Cl)cc2C(=O)O)cc1` [Known compound (1), 2-{[(4-tert-butylphenyl)carbonyl]amino}-5-chlorobenzoic acid, reference compound]: on human PAI-1 [4], the activity at 2.5 µM stood at 100% and the activity at 10 µM amounted to 12.7%. On human PAI-1 [3], the activity at 20 µM amounted to 44% and the activity at 50 µM was 11%.
For the compound `O=C(Nc1ccc(Cl)cc1C(=O)O)c1ccc(-c2ccccc2)cc1` [Known compound (2), 2-[(biphenyl-4-ylcarbonyl)amino]-5-chlorobenzoic acid, reference compound], at human PAI-1 [4], the activity at 2.5 µM came out at 70.7% and the activity at 10 µM came to 0.2%. For the same compound, on human PAI-1 [3], the activity at 20 µM was 41.8% and the activity at 50 µM stood at 8%.
On to `O=C(COc1ccc(C2CCCCC2)cc1)Nc1ccc(Cl)cc1C(=O)O` [Known compound (3), 5-chloro-2-{[(4-cyclohexylphenoxy)acetyl]amino} benzoic acid, reference compound], for which, on human PAI-1 [4], the activity at 2.5 µM is 36.3% and the activity at 10 µM came out at 0.3%.
Consider `O=C(Nc1ccc(Cl)cc1C(=O)O)c1ccc(C(=O)c2ccccc2)cc1` [Known compound (4), 5-chloro-2-{[(4-(phenylcarbonyl)phenyl]carbonyl}amino} benzoic acid, reference compound], for which, on human PAI-1 [4], the activity at 2.5 µM is 79.6% and the activity at 10 µM worked out at 8.1%.
On the same counts, the results for `O=C(Nc1ccc(Cl)cc1C(=O)O)c1ccc2c(c1)CCCC2` [Known compound (5), 5-chloro-2-[(5,6,7,8-tetrahydronaphthalene-2-ylcarbonyl)amino] benzoic acid, reference compound] are 98.5% and 18.8%.
As for `O=C(O)c1cc(Cl)ccc1NC(=O)C(c1ccccc1)c1ccccc1` [Known compound (6), 5-chloro-2-[(diphenylacetyl)amino] benzoic acid, reference compound], at human PAI-1 [4], the activity at 2.5 µM came to 85% and the activity at 10 µM stood at 37.4%.
Regarding `O=C(Nc1ccc(Cl)cc1C(=O)O)c1ccc(-n2cccc2)cc1` [Salt of Known compound (7), 5-chloro-2-({[4-(1H-pyrrol-1-yl)phenyl]carbonyl}amino)benzoic acid hydrochloride, reference compound], at human PAI-1 [4], the activity at 2.5 µM turned out to be 100% and the activity at 10 µM was determined as 3.7%.
